From paper PMC12530846, “Development of Novel Anticancer Pyrazolopyrimidinones Targeting Glioblastoma” (Chemmedchem, 2025)
pIC50: −log10 of the molar value.

Experiments:
Type in all cases: cell-based, human
[1] = tested on: U‐251 MG and HEK293 cells; assay: Statistical comparison of dose–response in U‐251 MG versus HEK293 (selectivity, HIT criteria); conditions: for Selectivity for cancer cells with IC50 < 50 [µM]‐Yes/No: HEK293 IC50 higher than U‐251 MG IC50, U‐251 MG IC50 below 50 µM; for All criteria met -Yes/No: HIT criteria and statistical testing, Table S1
HEK293 cells = assay: MTT cell viability assay, noncancerous HEK293 cells, 5 days treatment; conditions: for pIC50: 5 days treatment, 100–0 µM; for cytotoxicity / biological response in HEK293, in words: 5 days, up to 100 µM, threshold 50 µM
Experimental: (§1) Dose–response curves for each of the pyrazolo[1,5‐α]pyrimidinones were performed to determine the cytotoxic effect of the compounds on a cancerous, U‐251 MG cell line and a noncancerous, HEK293 cell line. The synthesized pyrazolopyrimidinones were dissolved in DMSO (Merck) to obtain a stock solution which was stored at −20 °C. […] U‐251 MG and HEK293 cells were seeded at a density of 2 x 10^3 cells per well (100 μL) in a 96‐well plate (Sarstedt) and incubated for 24 h prior to each treatment to allow for cell adhesion. The stock solution was diluted in media to working concentrations of 100, 75, 50, 25, 10, 5, and 0.1 μM. Media on the seeded cells was then replaced with the working concentrations of the compound or the controls in a 96‐well plate (100 μL). The treated plate was incubated at 37 °C in the humidified incubator for 5 days. Cell viability was assessed after 5 days using the MTT assay. Dose–response curves were then plotted relative to the positive control whereby cells were treated 20% DMSO and a negative control whereby cells were maintained in fresh DMEM.
(§2) To determine the extent of the cytotoxic effect of the pyrazolopyrimidinone on each cell line, the cell viability at each working concentration was determined via the MTT assay (Merck). The working solution of MTT used was 5 mg MTT per 1 ml of PBS diluted in 9 ml of media. After 5 days of incubation, the treatment was removed from each of the wells and replaced with 100 μL of fresh MTT solution. The plate was then incubated for 3 h at 37 °C in a humidified incubator to allow the reduction of the yellow tetrazolium salt to purple formazan crystals. After the incubation, the MTT solution was removed from the wells and replaced with 100 μL of DMSO for 15 min to dissolve the formazan crystals. The absorbance was read at 570 nm using a spectrophotometric microplate reader (Thermo Fisher Scientific).
(§3) Each of the experiments was performed at least three independent times, with a minimum of six technical replicates per experiment. Statistical analysis was carried out using GraphPad Prism version 8.0.0 (GraphPad Softwares, Inc.). Curve fitting and the IC50 values were obtained through the dose–response curves using nonlinear regression. To determine if the dose–response curves were statistically distinct and not overlapping, extra sum‐of‐squares F‐test was used, and a p‐value was obtained. The effect of compound treatment on both cell lines was statistically compared via two‐way ANOVA with Tukey's post‐test. The CytExpert (Beckman Coulter) software was used for flow cytometry analysis. Graphs represent the % dead cells whereby the total number of dead cells was divided by the total cell population. The statistical significance of the flow cytometry results was determined via one‐way analysis of variance (ANOVA) with Dunnett's T3 multiple comparison post‐test. Data is presented as the mean ± standard error of mean (SEM). Summary of results from statistical analysis reports p‐values as follows: ≥0.05 (ns), 0.01–0.05 (*), 0.001–0.01 (**), […], and <0.0001(****).

U‐251 MG cells [2] = assay: MTT cell viability assay, U‐251 MG glioblastoma cells, 5 days treatment; conditions: for pIC50: 5 days treatment, 100–0 µM; for cytotoxicity / biological effect on U‐251 MG, in words: 5 days, up to 100 µM
Experimental: as §1, §2, §3

U‐251 MG cells [3] = assay: Propidium iodide (PI) flow cytometry, cell membrane permeabilization; conditions: 5 days; for PI: significance of cell death, Neg Ctrl v HNT: highest non-toxic concentration
Experimental: Propidium iodide (PI) is a DNA staining, cell membrane impermeable dye which was used to assess cell death via loss of membrane integrity and is used to indicate necrotic or late apoptotic cells. Stock solutions of PI dye (Merck, Ireland) were prepared at 10 μg/mL in PBS and stored at −20 °C. U‐251 MG cells were seeded in 96‐well plates at a seeding density of 2 x 10^3 cells per well (100 μL), as previously stated. […] Subsequently, the compound was collected in 15 ml falcon tubes. Cells were washed with PBS (100 μL), and the PBS was collected in corresponding tubes to ensure all cells are collected. The cells were collected using 0.25% trypsin‐EDTA (50 μL) with a 6‐min incubation and media neutralization (100 μL). Each tube was centrifuged at 1200rpm for 5 min to obtain a pellet. The supernatant was removed, and the pellet was resuspended in PBS and transferred to an Eppendorf tube. Ten microliters of PI stain (2.5 μg/ml) was added to the Eppendorf tubes, and the tubes were incubated for a period of 15 min. Cells were also treated using controls whereby the positive control used was DMEM and 20% DMSO and the negative control used was fresh media. The cells were then analyzed using flow cytometry (Beckmann Coulter, CytExpert version 2.4.0.28). Fluorescence was measured using the FL2 channel. PI was detected in the red channel which is R‐phycoerythrin (PE‐Cy5). PE was used in combination with fluorescein isothiocyanate (FITC) and is excited at a wavelength of 488 nm.
as §3

U‐251 MG cells [4] = assay: JC‐1 flow cytometry, mitochondrial membrane depolarization / apoptosis; conditions: 5 days; for apoptosis observed (JC-1): example analysis, negative control 8.64 %; for JC-1: significance of cell death, Neg Ctrl v HNT / JC-1: significance of cell death, Neg Ctrl v 50 µM: U‐251 MG; for JC-1: significance of cell death, Neg Ctrl v 50 µM: highest toxic concentration 50 µM
Experimental: JC‐1 dye forms aggregates in healthy mitochondria which changes the fluorescent property of the dye. […] Stock solutions of JC‐1 dye (Merck) were prepared at 1 mg/mL in DMSO and stored at −20 °C. U‐251 MG cells were seeded in 6‐well plates (Sarstedt) at a seeding density of 2 x 10^4 cells per well (1000μL) after which cells were treated with drug concentrations (highest toxic, IC50, nontoxic). After 5 days incubation, the compound and wash step with PBS was collected in falcon tubes. The cells were then harvested by trypsinization (500 μL), incubated for a period of 6 min, neutralized with media (1000 μL), and pelleted at 1200rpm for 5 min. A JC‐1 working solution of 2 μg/mL was made up in DMEM and was light protected. The cell pellet was resuspended and stained with 2 μg/mL JC‐1 dye and incubated and protected from the light for a period of 10 min. Cells were then centrifuged at 1200rpm for 5 min. The supernatant was removed, and cells were washed with 1 mL of sterile PBS. This was repeated twice. […] Cells were also treated using controls whereby the positive control used was DMEM and 20% DMSO and the negative control used was fresh media. The cells were then analyzed using flow cytometry (Beckmann Coulter, CytExpert version 2.4.0.28). Fluorescence was measured using FL1 (FITC) (530 nm) and FL2 (PE) (595 nm) channels with emission.
as §3

[5] = highest non-toxic concentration

| SMILES | Selectivity for cancer cells with IC50 < 50 [µM]‐Yes/No [1] | pIC50 (HEK293 cells; Homo sapiens, HEK293, 120 h) | pIC50 (U‐251 MG cells [2]; Homo sapiens, U-251, 120 h) | All criteria met -Yes/No [1] | cytotoxicity / biological response in HEK293, in words (HEK293 cells) | other results |
| --- | --- | --- | --- | --- | --- | --- |
| Cc1cc(=O)n2nc(C(C)C)cc2[nH]1 [Compound 1] | No |  |  |  |  |  |
| CC(C)c1cc2[nH]c(-c3ccccc3)cc(=O)n2n1 [Compound 2] | No | 5.01 | > 4.70 |  |  | pIC50 (U‐251 MG cells [2]): 4.69 |
| Cc1cc(C)cc(-c2cc(=O)n3nc(C(C)C)cc3[nH]2)c1 [Compound 3] | No | 5.19 |  |  |  |  |
| CC(C)c1cc2[nH]c(-c3cc(C(F)(F)F)cc(C(F)(F)F)c3)cc(=O)n2n1 [Compound 4] | No | 5.13 | > 4.70 |  |  | pIC50 (U‐251 MG cells [2]): 4.85 |
| O=c1cc(-c2cc(C(F)(F)F)cc(C(F)(F)F)c2)[nH]c2cc(-c3ccccc3)nn12 [Compound 5] | Yes |  |  | Yes | did not elicit any biological response | cell membrane permeabilization‐dependent cell death (PI), in words (U‐251 MG cells [3]): did not induce cell death by cell wall permeabilization; apoptosis observed (JC-1) (U‐251 MG cells [4]; IC50 concentration): 15.55%; apoptosis observed (JC-1) (U‐251 MG cells [4]; [5]): 14.34%; apoptosis observed (JC-1) (U‐251 MG cells [4]; highest toxic concentration): 52.97% |
| O=c1cc(-c2cc(C(F)(F)F)cc(C(F)(F)F)c2)[nH]c2cc(-c3ccc(F)cc3)nn12 [Compound 6] | No | 4.17 | 4.28 |  |  |  |
| O=c1cc(-c2cc(C(F)(F)F)cc(C(F)(F)F)c2)[nH]c2cc(-c3ccc(Br)cc3)nn12 [Compound 7] | Yes | < 4.30 | > 4.30 | Yes | did not elicit any biological response | cell membrane permeabilization‐dependent cell death (PI), in words (U‐251 MG cells [3]): significant cell membrane permeabilization‐dependent cell death; PI: significance of cell death, Neg Ctrl v HNT (U‐251 MG cells [3]): * (0.01 to 0.05 (*)); JC-1: significance of cell death, Neg Ctrl v HNT (U‐251 MG cells [4]; [5]): ns (≥0.05 (ns)); JC-1: significance of cell death, Neg Ctrl v 50 µM (U‐251 MG cells [4]): **** (<0.0001(****)); pIC50 (HEK293 cells): 4.22; pIC50 (U‐251 MG cells [2]): 4.53 |
| O=c1cc(-c2cc(C(F)(F)F)cc(C(F)(F)F)c2)[nH]c2cc(-c3ccc(Cl)cc3)nn12 [Compound 8] | Yes | < 4.30 | > 4.52 |  | did not elicit any biological response | pIC50 (HEK293 cells): 4.28; pIC50 (U‐251 MG cells [2]): 4.76 |
| O=c1cc(-c2cc(C(F)(F)F)cc(C(F)(F)F)c2)[nH]c2cc(-c3ccc([N+](=O)[O-])cc3)nn12 [Compound 10] | Yes | < 4.30 |  | Yes | did not elicit any biological response | cell membrane permeabilization‐dependent cell death (PI), in words (U‐251 MG cells [3]): significant cell membrane permeabilization‐dependent cell death; PI: significance of cell death, Neg Ctrl v HNT (U‐251 MG cells [3]): ns (≥0.05 (ns)); JC-1: significance of cell death, Neg Ctrl v HNT (U‐251 MG cells [4]; [5]): * (0.01 to 0.05 (*)); JC-1: significance of cell death, Neg Ctrl v 50 µM (U‐251 MG cells [4]): *** (0.001 to 0.01(***)); pIC50 (HEK293 cells): 4.13 |
| COc1ccc(-c2cc3[nH]c(-c4cc(C(F)(F)F)cc(C(F)(F)F)c4)cc(=O)n3n2)cc1 [Compound 11] | No | > 4.52 | 4.63 | No |  | pIC50 (HEK293 cells): 4.53 |
| O=c1cc(-c2cc(C(F)(F)F)cc(C(F)(F)F)c2)[nH]c2cc(-c3cccc(Cl)c3)nn12 [Compound 12] |  | > 4.52 | 4.66 | No |  | pIC50 (HEK293 cells): 4.53 |
| O=c1cc(-c2cc(C(F)(F)F)cc(C(F)(F)F)c2)[nH]c2cc(-c3ccco3)nn12 [Compound 13] |  |  |  | No | no cytotoxicity | cytotoxicity / biological effect on U‐251 MG, in words (U‐251 MG cells [2]): no cytotoxicity |
| Cc1cc(=O)n2nc(-c3ccccc3)cc2[nH]1 [Compound 14] |  |  | 4.09 | No | did not elicit a biological effect | cytotoxicity / biological effect on U‐251 MG, in words (U‐251 MG cells [2]): did not elicit a biological effect |
| Cc1cc2[nH]c(C)cc(=O)n2n1 [Compound 16] |  |  |  | No |  |  |
| CC(C)(C)c1cc2[nH]c(-c3ccccc3)cc(=O)n2n1 [Compound 17] |  |  | 4.12 | No |  |  |
| CC(C)c1cc2[nH]c(C(C)C)cc(=O)n2n1 [Compound 18] | No | 3.93 | 3.77 | No |  |  |
| CCc1cc(=O)n2nc(C(C)C)cc2[nH]1 [Compound 19] |  |  | 3.81 | No |  |  |
| O=c1cc(-c2cc(C(F)(F)F)cc(C(F)(F)F)c2)[nH]c2cc(-c3cccc(C(F)(F)F)c3)nn12 [Compound 20] |  |  | 4.51 | No |  |  |
| O=c1cc(-c2cc(C(F)(F)F)cc(C(F)(F)F)c2)[nH]c2cc(-c3cccc([N+](=O)[O-])c3)nn12 [Compound 23] | Yes | 4.22 | 4.53 |  |  | pIC50 (U‐251 MG cells [2]): 4.63 |
